Data on one substance can be found in EP3072514A1, “Novel oral anticoagulants (NOACs) for preventing development and aggravation of atrial fibrillation” (Université Pierre et Marie Curie - Paris 6 (UPMC), priority 2015, dated 2016).

Data set [1] relates to rats with occlusion of left coronary artery followed by reperfusion (I/R). Nature of the data set: Echocardiographic evaluation of left atrium and left ventricle in rats after ischemia/reperfusion (I/R). Format: in vivo, Male OFA Sprague-dawley rats. The text has this: • Figure 1 is a combination of two graphs showing left atrium (LA) area after one month of treatment with DTI Dabigatran (A) or S35792 (B). Vehicle (V) is 60% H2O/40% PEG 300 for dabigatran and saline for S35972. Treatment of rats started just after thoracotomy without (Sham) or with occlusion of left coronary artery followed by reperfusion (I/R). […] Vehicle (V) is 60% H2O/40% PEG 300 for dabigatran and saline for S35972. Treatment of rats started just after thoracotomy without (Sham) or with occlusion of left coronary artery followed by reperfusion (I/R). Results are presented as mean +/- S.E.M. * P<0.05; ** P<0.001, *** P<0.001 vs Sham; #P<0.05 vs untreated I/R. • Figure 3 is a combination of two graphs showing thrombin time (TT), which reflects anticoagulant activity, and plasma concentrations of Dabigatran (A) and S35792 (B) in rats after throracotomy with occlusion of left coronary artery followed by reperfusion (I/R). Vehicle (V) is 60% H2O/40% PEG 300 for dabigatran and saline for S35972. Tests were carried out on blood collected by cardiac puncture at sacrifice (i.e. for Dabigatran, 90 minutes after last oral administration). DTI plasma levels are quantified using LC-MS/MS. TT are expressed as mean +/- S.E.M with reference to the mean value of sham animals that underwent thoracotomy only. *** P<0.001 vs untreated I/R. • Figure 4 is a combination of three graphs showing left atrium (LA) area (A) and diameter (B) and left ventricle end-diastolic (LVED) diameter (C) after two months of treatment with S35972. Treatment of rats started just after thoracotomy without (Sham) or with occlusion of left coronary artery followed by reperfusion (I/R). LA area was measured by bidimensional echocardiography. LA and LVED diameters were measured in time-motion mode. Results are presented as mean +/- S.E.M. *P<0.05, **P<0.01 and *** P<0.001 vs Sham; ^#P<0.05 ^###P<0.001 vs untreated I/R. • Figure 5 is a graph showing the impact of S35972 administration during two months on the duration of an episode of AF in rats undergone thoracotomy without (Sham) or with occlusion of left coronary artery followed by reperfusion (I/R). AF duration is measured as the time between the end of the electric stimulation and the return to sinusoidal rhythm. […] Rats undergone thoracotomy without (Sham) or with occlusion of left coronary artery followed by reperfusion (I/R). Expression of mRNA was measured with real-time qPCR. […] Treatment of rats started one month post thoracotomy without (Sham) or with occlusion of left coronary artery followed by reperfusion (I/R). LA area was measured by bidimensional echocardiography. LVED and LA diameters were measured in time-motion mode. […] Rats undergone thoracotomy without (Sham) or with occlusion of left coronary artery followed by reperfusion (I/R). AF duration is measured as the time between the end of the electric stimulation and return to sinusoidal rhythm. Results are presented as mean +/- S.E.M.
Animals were anesthetized with 30 mg/kg sodium pentobarbital, and then intubated and ventilated at 60 respirations/min while body temperature was maintained at 37°C. Rats underwent thoracotomy and their left coronary artery was either left intact (Sham) or occluded with a 4.0 silk suture at 1 mm from the artery origin. Ischemia was maintained for 30 min and the clamp was removed to initiate a definitive reperfusion phase. […]

Data set [2] is described as follows: Plasma concentration by LC-MS/MS in I/R rats. Details: species or system Male OFA Sprague-dawley rats. The conditions noted are these: rat, in vivo, sc. The text has this: • Figure 1 is a combination of two graphs showing left atrium (LA) area after one month of treatment with DTI Dabigatran (A) or S35792 (B). Vehicle (V) is 60% H2O/40% PEG 300 for dabigatran and saline for S35972. Treatment of rats started just after thoracotomy without (Sham) or with occlusion of left coronary artery followed by reperfusion (I/R). Results are presented as mean +/- S.E.M, *P<0.05, **P<0.01 and *** P<0.001 vs Sham; ^##P<0.01 and ^###P<0.001 vs untreated I/R. • Figure 2 is a combination of graphs showing left ventricular end-diastolic (LVED) diameter and fractional shortening (FS) after one month of treatment with Dabigatran (A) or S35792 (B). Vehicle (V) is 60% H2O/40% PEG 300 for dabigatran and saline for S35972. Treatment of rats started just after thoracotomy without (Sham) or with occlusion of left coronary artery followed by reperfusion (I/R). Results are presented as mean +/- S.E.M. * P<0.05; ** P<0.001, *** P<0.001 vs Sham; #P<0.05 vs untreated I/R. • Figure 3 is a combination of two graphs showing thrombin time (TT), which reflects anticoagulant activity, and plasma concentrations of Dabigatran (A) and S35792 (B) in rats after throracotomy with occlusion of left coronary artery followed by reperfusion (I/R). Vehicle (V) is 60% H2O/40% PEG 300 for dabigatran and saline for S35972. […] DTI plasma levels are quantified using LC-MS/MS. TT are expressed as mean +/- S.E.M with reference to the mean value of sham animals that underwent thoracotomy only. *** P<0.001 vs untreated I/R. • Figure 4 is a combination of three graphs showing left atrium (LA) area (A) and diameter (B) and left ventricle end-diastolic (LVED) diameter (C) after two months of treatment with S35972. […] LA area was measured by bidimensional echocardiography. LA and LVED diameters were measured in time-motion mode. […] AF duration is measured as the time between the end of the electric stimulation and the return to sinusoidal rhythm. […] Expression of mRNA was measured with real-time qPCR. […] Expression of mRNA was measured with real-time qPCR. […]

Data set [3] deals with blood coagulation. Kind of data set: Thrombin time (TT) on blood collected by cardiac puncture at sacrifice of I/R rats. Format: in vivo, Male OFA Sprague-dawley rats. The conditions noted are these: subcutaneous osmotic minipump, with reference to the mean value of sham animals. The source says: • Figure 1 is a combination of two graphs showing left atrium (LA) area after one month of treatment with DTI Dabigatran (A) or S35792 (B). Vehicle (V) is 60% H2O/40% PEG 300 for dabigatran and saline for S35972. Treatment of rats started just after thoracotomy without (Sham) or with occlusion of left coronary artery followed by reperfusion (I/R). […] Vehicle (V) is 60% H2O/40% PEG 300 for dabigatran and saline for S35972. Treatment of rats started just after thoracotomy without (Sham) or with occlusion of left coronary artery followed by reperfusion (I/R). Results are presented as mean +/- S.E.M. * P<0.05; ** P<0.001, *** P<0.001 vs Sham; #P<0.05 vs untreated I/R. • Figure 3 is a combination of two graphs showing thrombin time (TT), which reflects anticoagulant activity, and plasma concentrations of Dabigatran (A) and S35792 (B) in rats after throracotomy with occlusion of left coronary artery followed by reperfusion (I/R). Vehicle (V) is 60% H2O/40% PEG 300 for dabigatran and saline for S35972. […] DTI plasma levels are quantified using LC-MS/MS. TT are expressed as mean +/- S.E.M with reference to the mean value of sham animals that underwent thoracotomy only. *** P<0.001 vs untreated I/R. • Figure 4 is a combination of three graphs showing left atrium (LA) area (A) and diameter (B) and left ventricle end-diastolic (LVED) diameter (C) after two months of treatment with S35972. […] LA area was measured by bidimensional echocardiography. LA and LVED diameters were measured in time-motion mode. […] AF duration is measured as the time between the end of the electric stimulation and the return to sinusoidal rhythm. […] Expression of mRNA was measured with real-time qPCR. […] Expression of mRNA was measured with real-time qPCR. […] Expression of mRNA was measured with real-time qPCR. […] LA area was measured by bidimensional echocardiography. LVED and LA diameters were measured in time-motion mode. […] AF duration is measured as the time between the end of the electric stimulation and return to sinusoidal rhythm. […]

[4] abbreviates: 6 mg/kg/d during one month, treatment started one month after the I/R episode.
[5] abbreviates: 6 mg/kg/day for 8 weeks, started just after I/R.
The mark [6] stands for this setting: four weeks post-I/R, one month of treatment started just after I/R.

Take “4-oxo-3-(2-pyridin-2-ylethylamino)-4,6,7,8-tetrahydro-pyrrolo[1,2-a]pyrazine-6-carboxylic acid 2-ethylcarbamoyl methoxy-benzylamide [S35972]”: the left atrium area result in data set [1] (3 mg/kg/day for 8 weeks, started just after I/R) is listed as “decreases the left atrium area”. In data set [1] (setting [4]), the left atrium diameter result is “decreased to an intermediate value between Sham and I/R rats”; the “left ventricle end-diastolic diameter” value was “had no effect”. For the same substance, in data set [1] (6 mg/kg/d during one month, treatment started one month after the I/R episode (established atrial dilatation)), the left atrium area result is reported as “significantly reduced”. For the same substance, in data set [1] (setting [5]), the atrial diameter result is on record as “significantly reduces”, the left atrium area entry is given as “decreases the left atrium area” and the “ventricular diameter (LVED diameter)” value is given as “significantly reduces”. In data set [1] (setting [6]), the “dilatation of left atrium (left atrium (LA) area)” value is on record as “prevent the dilatation of left atrium”, the “ventricular diameter (LVED diameter)” value is reported as “do not impact” and the “ventricular function (fractional shortening)” value is “do not impact”. For the same substance, in data set [2] (3 mg/kg/day), the plasma concentration was determined as 24.1 ± 5.7 ng/mL. For the same substance, in data set [2] (6 mg/kg/day), the plasma concentration was 57.2 ± 24.4 ng/mL. In addition, the “thrombin time increases by a factor” value in data set [3] (3 mg/kg/day) was found to be 3. Also, the “thrombin time increases by a factor” value in data set [3] (6 mg/kg/day) is given as 3.
